{
  "source": "patent US8183239B2",
  "about": "“Substituted piperazines and piperidines as modulators of the neuropeptide Y2 receptor” (Janssen Pharmaceutica NV, priority 2005, dated 2012)",
  "data": [
    {"target": "T1, Y2 receptors (Homo sapiens, UniProt P49146)", "T1 construct": "endogenous in cells; host or cells: KAN-Ts cells (membranes)", "T1 sequence (P49146 1-381)": "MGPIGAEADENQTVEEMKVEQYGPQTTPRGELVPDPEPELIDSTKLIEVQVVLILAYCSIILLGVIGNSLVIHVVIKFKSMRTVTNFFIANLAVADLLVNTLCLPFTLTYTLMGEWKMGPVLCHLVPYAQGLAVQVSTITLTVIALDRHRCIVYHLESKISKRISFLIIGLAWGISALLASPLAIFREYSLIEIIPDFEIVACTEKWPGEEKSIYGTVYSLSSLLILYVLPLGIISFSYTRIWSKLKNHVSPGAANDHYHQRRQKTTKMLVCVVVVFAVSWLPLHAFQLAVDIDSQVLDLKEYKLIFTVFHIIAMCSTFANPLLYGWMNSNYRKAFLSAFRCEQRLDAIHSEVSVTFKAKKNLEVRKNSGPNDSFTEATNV", "test": "Radioligand binding assay ([125I]PYY, KAN-Ts cell membranes)", "settings": "Table 1, [125I]PYY 80 pM, average of results, read-out: IC50", "in_short": "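Membranes from KAN-Ts cells endogenously expressing Y2 incubated 1 h at rt with 80 pM [^125I]PYY ± test compound in HEPES buffer with NaCl, Ca^2+ and Mg^2+. Bound radioactivity collected by filtration; specific binding defined with […]. IC50 from sigmoidal fit, averaged over 3-8 duplicate experiments.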", "units": {"IC50": "nM"}, "values": [
      {"smiles": "CCNC(=O)C(c1ccccc1)C1CCN(c2ccc(C(=O)NC(CC)CC)cc2F)CC1", "note": "(stereo not shown) [Example 117, 4-[4-(Ethylcarbamoyl-phenyl-methyl)-piperidin-1-yl]-N-(1-ethyl-propyl)-3-fluoro-benzamide]", "IC50": 10000},
      {"smiles": "CC(=O)N(c1ccccc1)c1ccc(N2CCN(C(C(=O)Nc3ccc4c(c3)CCC4)c3ccccc3)CC2)cc1", "note": "(stereo not shown) [Example 118, 2-{4-[4-(Acetyl-phenyl-amino)-phenyl]-piperazin-1-yl}-N-indan-5-yl-2-phenyl-acetamide]", "IC50": 3400},
      {"smiles": "CCC(C)C(=O)Nc1ccc(N2CCC(C(C(=O)OC)c3ccccc3)CC2)cc1", "note": "(stereo not shown) [Example 120, {1-[4-(2-Methyl-butyrylamino)-phenyl]-piperidin-4-yl}-phenyl-acetic acid methyl ester]", "IC50": 2400},
      {"smiles": "CCN(CC)C(=O)C(c1ccccc1)N1CCN(c2ccc(NC(=O)[C@H]3CCOC3)cc2C#N)CC1", "note": "(stereo partly drawn) [Example 122, (S)-Tetrahydro-furan-3-carboxylic acid {3-cyano-4-[4-(diethylcarbamoyl-phenyl-methyl)-piperazin-1-yl]-phenyl}-amide]", "IC50": 8},
      {"smiles": "CCN(CC)C(=O)C(c1ccccc1)N1CCN(c2ccc(NC(=O)[C@@H]3CCOC3)cc2C#N)CC1", "note": "(stereo partly drawn) [Example 123, (R)-Tetrahydro-furan-3-carboxylic acid {3-cyano-4-[4-(diethylcarbamoyl-phenyl-methyl)-piperazin-1-yl]-phenyl}-amide]", "IC50": 17},
      {"smiles": "CCC(CC)C(=O)Nc1ccc(N2CCN(C(C(=O)N(CC)CC)c3cc(Br)ccc3F)CC2)c(F)c1", "note": "(stereo not shown) [Example 124, N-(4-{4-[(5-Bromo-2-fluoro-phenyl)-diethylcarbamoyl-methyl]-piperazin-1-yl}-3-fluoro-phenyl)-2-ethyl-butyramide]", "IC50": 15},
      {"smiles": "CCN(CC)C(=O)C(c1ccccc1)N1CCN(c2ccc(NC(=O)C3(c4ccccc4)CCCC3)cc2F)CC1", "note": "(stereo not shown) [Example 125, 1-Phenyl-cyclopentanecarboxylic acid {4-[4-(diethylcarbamoyl-phenyl-methyl)-piperazin-1-yl]-3-fluoro-phenyl}-amide]", "IC50": 20},
      {"smiles": "CCN(CC)C(=O)C(c1ccccc1)C1CCN(c2ccc(NC(=O)[C@H]3CCOC3)cc2F)CC1", "note": "(stereo partly drawn) [Example 126, (S)-Tetrahydro-furan-3-carboxylic acid {4-[4-(diethylcarbamoyl-phenyl-methyl)-piperidin-1-yl]-3-fluoro-phenyl}-amide]", "IC50": 25},
      {"smiles": "CCOC(=O)C(c1ccccc1)N1CCN(c2ccc(NC(=O)C(CC)CC)cc2F)CC1", "note": "(stereo not shown) [Example 127, {4-[4-(2-Ethyl-butyrylamino)-2-fluoro-phenyl]-piperazin-1-yl}-phenyl-acetic acid ethyl ester]", "IC50": 20},
      {"smiles": "CCN(CC)C(=O)C(c1ccccc1)N1CCN(c2ccc(NC(=O)c3ccnn3CC)cc2F)CC1", "note": "(stereo not shown) [Example 128, 2-Ethyl-2H-pyrazole-3-carboxylic acid {4-[4-(diethylcarbamoyl-phenyl-methyl)-piperazin-1-yl]-3-fluoro-phenyl}-amide]", "IC50": 35},
      {"smiles": "CCC(CC)C(=O)Nc1ccc(N2CCN(C(C(=O)N(CC)CC)c3cccc(OC)c3)CC2)c(F)c1", "note": "(stereo not shown) [Example 129, N-(4-{4-[Diethylcarbamoyl-(3-methoxy-phenyl)-methyl]-piperazin-1-yl}-3-fluoro-phenyl)-2-ethyl-butyramide]", "IC50": 40},
      {"smiles": "CCNC(=O)C(c1ccccc1)C1CCN(c2ccc(NC(=O)C3CCCC3)cc2C#N)CC1", "note": "(stereo not shown) [Example 130, Cyclopentanecarboxylic acid {3-cyano-4-[4-(ethylcarbamoyl-phenyl-methyl)-piperidin-1-yl]-phenyl}-amide]", "IC50": 40},
      {"smiles": "CCN(CC)C(=O)C(c1ccccc1)C1CCN(c2ccc(NC(=O)c3cccnc3C)cc2F)CC1", "note": "(stereo not shown) [Example 131, N-{4-[4-(Diethylcarbamoyl-phenyl-methyl)-piperidin-1-yl]-3-fluoro-phenyl}-2-methyl-nicotinamide]", "IC50": 50},
      {"smiles": "CCN(CC)C(=O)C(c1ccccc1)C1CCN(c2ccc(NC(=O)[C@@H]3CCOC3)cc2F)CC1", "note": "(stereo partly drawn) [Example 132, (R)-Tetrahydro-furan-3-carboxylic acid {4-[4-(diethylcarbamoyl-phenyl-methyl)-piperidin-1-yl]-3-fluoro-phenyl}-amide]", "IC50": 55},
      {"smiles": "CCNC(=O)C(c1ccccc1)C1CCN(c2ccc(NC(=O)[C@H]3CCOC3)cc2C#N)CC1", "note": "(stereo partly drawn) [Example 133, (S)-Tetrahydro-furan-3-carboxylic acid {3-cyano-4-[4-(ethylcarbamoyl-phenyl-methyl)-piperidin-1-yl]-phenyl}-amide]", "IC50": 60},
      {"smiles": "CCN(CC)C(=O)C(c1ccccc1)C1CCN(c2ccc(NC(=O)Cc3cscc3C)cc2F)CC1", "note": "(stereo not shown) [Example 134, N,N-Diethyl-2-(1-{2-fluoro-4-[2-(4-methyl-thiophen-3-yl)-acetylamino]-phenyl}-piperidin-4-yl)-2-phenyl-acetamide]", "IC50": 80},
      {"smiles": "CCN(CC)C(=O)C(c1ccccc1)N1CCN(c2ccc(NC(=O)C3CCC3)cc2F)CC1", "note": "(stereo not shown) [Example 135, Cyclobutanecarboxylic acid {4-[4-(diethylcarbamoyl-phenyl-methyl)-piperazin-1-yl]-3-fluoro-phenyl}-amide]", "IC50": 60},
      {"smiles": "CCN(CC)C(=O)C(c1ccccc1)N1CCN(c2ccc(NC(=O)C3(C)CCCCC3)cc2F)CC1", "note": "(stereo not shown) [Example 136, 1-Methyl-cyclohexanecarboxylic acid {4-[4-(diethylcarbamoyl-phenyl-methyl)-piperazin-1-yl]-3-fluoro-phenyl}-amide]", "IC50": 70},
      {"smiles": "CC[C@H](C)C(=O)Nc1ccc(N2CCN(C(C(=O)N(CC)CC)c3ccccc3)CC2)c(F)c1", "note": "(stereo partly drawn) [Example 137, (S)—N-{4-[4-(Diethylcarbamoyl-phenyl-methyl)-piperazin-1-yl]-3-fluoro-phenyl}-2-methyl-butyramide]", "IC50": 70},
      {"smiles": "CCC(CC)C(=O)Nc1ccc(N2CCC(=C(C(=O)N(CC)CC)c3cccc(F)c3)CC2)c(F)c1", "note": "[Example 138, N-(4-{4-[Diethylcarbamoyl-(3-fluoro-phenyl)-methylene]-piperidin-1-yl}-3-fluoro-phenyl)-2-ethyl-butyramide]", "IC50": 70},
      {"smiles": "CCN(CC)C(=O)C(c1ccccc1)N1CCN(c2ccc(NC(=O)C(C)(C)c3ccc(Cl)cc3)cc2F)CC1", "note": "(stereo not shown) [Example 139, 2-(4-Chloro-phenyl)-N-{4-[4-(diethylcarbamoyl-phenyl-methyl)-piperazin-1-yl]-3-fluoro-phenyl}-isobutyramide]", "IC50": 72},
      {"smiles": "CCN(CC)C(=O)C(c1ccccc1)C1CCN(c2ccc(NC(=O)C(C)C)cc2F)CC1", "note": "(stereo not shown) [Example 140, N-{4-[4-(Diethylcarbamoyl-phenyl-methyl)-piperidin-1-yl]-3-fluoro-phenyl}-isobutyramide]", "IC50": 80},
      {"smiles": "CCN(CC)C(=O)C(c1ccccc1)C1CCN(c2ccc(NC(=O)c3cccnc3SC)cc2F)CC1", "note": "(stereo not shown) [Example 141, N-{4-[4-(Diethylcarbamoyl-phenyl-methyl)-piperidin-1-yl]-3-fluoro-phenyl}-2-methylsulfanyl-nicotinamide]", "IC50": 80},
      {"smiles": "CCNC(=O)C(c1ccccc1)C1CCN(c2c(F)cc(NC(=O)C(CC)CC)cc2F)CC1", "note": "(stereo not shown) [Example 142, 2-Ethyl-N-{4-[4-(ethylcarbamoyl-phenyl-methyl)-piperidin-1-yl]-3,5-difluoro-phenyl}-butyramide]", "IC50": 75},
      {"smiles": "CCN(CC)C(=O)C(c1ccccc1)N1CCN(c2ccc(NC(=O)C3CCCC3)cc2F)CC1", "note": "(stereo not shown) [Example 143, Cyclopentanecarboxylic acid {4-[4-(diethylcarbamoyl-phenyl-methyl)-piperazin-1-yl]-3-fluoro-phenyl}-amide]", "IC50": 80}
    ]}
  ]
}
